Reference: patent publication US8889592B2, “Insecticidal and/or herbicidal composition having improved activity based on spiroheterocyclically substituted tetramic acid derivatives” (Bayer CropScience AG, priority 2010, dated 2014)

Columns and labels:
Myzus persicae = Myzus persicae test (activity boost through ammonium salts and penetrants); type: in vivo, green peach aphid (Myzus persicae); conditions: for Kill (%) after 6 d +AS + RME per 1000 ppm: 1000 ppm each; for Kill (%) after 6 d: no additive, bell pepper plants, spray
Experimental: (§1) Solvent: 7 parts by weight of dimethylformamide
(§2) Emulsifier: 2 parts by weight of alkylaryl polyglycol ether
To produce a suitable preparation of active compound, 1 part by weight of active compound is mixed with the stated amounts of solvent and emulsifier, and the concentrate is diluted with water to the desired concentration. For application with ammonium salts or phosphonium salts and penetration promoters (rapeseed oil methyl ester 500 EW) these are in each case added in a concentration of 1000 ppm to the spray liquor.
Bell pepper plants (Capsicum annuum) heavily infested by the green peach aphid (Myzus persicae) are sprayed to runoff point with the preparation of active compound at the desired concentration.
After the desired period of time, the kill in % is determined. 100% means that all animals have been killed; 0% means that none of the animals have been killed.

Aphis gossypii = Aphis gossypii test; type: in vivo, cotton aphid (Aphis gossypii); conditions: for Kill (%) after 6 d +AS + RME per 1000 ppm: 1000 ppm each; for Kill (%) after 6 d: no additive, cotton plants, spray
Experimental: as §1, §2
To produce a suitable preparation of active compound, 1 part by weight of active compound is mixed with the stated amounts of solvent and emulsifier, and the concentrate is diluted with emulsifier-containing water to the desired concentration. For application with ammonium salts or phosphonium salts and penetration promoters (rapeseed oil methyl ester 500 EW) these are in each case added in a concentration of 1000 ppm of a.i. to the spray liquor.
Cotton plants (Gossypium hirsutum) which are heavily infested by the cotton aphid (Aphis gossypii) are sprayed to runoff point with the preparation of active compound at the desired concentration.
After the desired period of time, the kill in % is determined. 100% means that all aphids have been killed; 0% means that none of the aphids have been killed.

[1] = Penetration through enzymatically isolated apple leaf cuticles (35° C., 60% rh); type: in vitro ADME, apple trees of the cultivar Golden Delicious; conditions: 0.2 g/l; for Penetration after 48 h/% EC: 500 ppm in DMF/emulsifier W 7:1 (w/w), no additive; for Penetration after 48 h/% EC + AS (0.7 g/l): with ammonium sulphate; for Penetration after 48 h/% EC + RME (1 g/l): with rapeseed oil methyl ester; for Penetration after 48 h/% EC + RME (1 g/l) + AS (0.7 g/l): with rapeseed oil methyl ester and ammonium sulphate
Experimental: (§3) In this test, the penetration of active compounds through enzymatically isolated cuticles of apple tree leaves is measured.
(§4) Use is made of leaves which, when fully developed, are cut from apple trees of the cultivar Golden Delicious. The cuticles are isolated by • initially filling leaf discs punched out and stained with dye on the underside by vacuum infiltration with a pectinase solution (0.2 to 2% strength) buffered to a pH between 3 and 4, • then adding sodium azide and • allowing the leaf discs treated in this manner to stand until the original leaf structure has dissolved and the non-cellular cuticles have detached.
(§5) Only the cuticles, free from hairs and stoma, of the upper sides of the leaves are then used. They are washed repeatedly alternating with water and a buffer solution of pH 7. The clean cuticles obtained are then mounted on Teflon plates and smoothed and dried with a gentle stream of air.
(§6) In the next step, the cuticle membranes obtained in this manner are placed into stainless steel diffusion cells (=transport chambers) for membrane transport studies. To this end, the cuticles are placed with a pincette into the centre of the edges, coated with silicone fat, of the diffusion cells and closed with a ring, which is also treated with fat. The arrangement is chosen such that the morphological outside of the cuticles is facing outwards, i.e. exposed to air, whereas the original inside is facing the interior of the diffusion cell.
(§7) The diffusion cells are filled with a 30% strength ethylene glycol/water solution. To determine the penetration, in each case 10 μl of the spray liquor of the composition below are applied to the outside of the cuticles. The spray liquor is prepared using local tap water of medium hardness.
After the application of the spray liquors, the water is allowed to evaporate and the chambers are inverted and placed into thermostatic tubs in which temperature and atmospheric humidity over the cuticles can be adjusted using a gentle stream of air onto the cuticles with the spray coating (35° C., 60% rh). At regular intervals, an autosampler takes aliquots and the active compound content is determined by HPLC.
(§8) The stated numbers are average values of 8 to 10 measurements. It is clearly evident that even the ammonium salts on their own improve the penetration markedly, and that, together with RME, a superadditive (synergistic) effect is present.

ALOMY (Peldon) = test: Herbicidal post-emergence action; type: in vivo, Blackgrass (resistant); conditions: 6.25 g of a.i./ha, 28 days after application
Experimental: (§9) Seeds of monocotyledonous weed plants are placed in sandy loam in wood fibre pots, covered with soil and cultivated in a greenhouse under good growth conditions. 3-4 weeks after sowing, the test plants are treated at the two- to three-leaf stage. The test compound, formulated as a wettable powder (WP), is then, at various dosages with a water application rate of 300 l/ha (converted), with the stated adjuvants added, sprayed onto the green parts of the plants. After the test plants have been kept in the greenhouse under optimum growth conditions for about 4 weeks, the effect of the preparations is rated visually in comparison to untreated controls (herbicidal effect in percent: 100% effect=the plants have died, 0% effect=like control plants).

LOLMU = test: Herbicidal post-emergence action; type: in vivo, Italian Ryegrass; conditions: 6.25 g of a.i./ha, 28 days after application
Experimental: as §9

LOLRI = test: Herbicidal post-emergence action; type: in vivo, Annual Ryegrass (resistant); conditions: 6.25 g of a.i./ha, 28 days after application
Experimental: as §9

ALOMY = test: Herbicidal post-emergence action; type: in vivo, Blackgrass (not resistant); conditions: 6.25 g of a.i./ha, 28 days after application
Experimental: as §9

[2] = Penetration through enzymatically isolated apple leaf cuticles (20° C., 60% rh); type: in vitro ADME, apple trees of the cultivar Golden Delicious; conditions: 0.1 g/l
Experimental: as §3, §4, §5, §6, §7
After the application of the spray liquors, the water is allowed to evaporate and the chambers are inverted and placed into thermostatic tubs in which temperature and atmospheric humidity over the cuticles can be adjusted using a gentle stream of air onto the cuticles with the spray coating (20° C., 60% rh). At regular intervals, an autosampler takes aliquots and the active compound content is determined by HPLC.
as §8

[3] = 4 ppm active compound + ammonium sulphate 1000 ppm
[4] = 4 ppm active compound + ammonium sulphate and rapeseed oil methyl ester
[5] = 4 ppm active compound + rapeseed oil methyl ester 1000 ppm
[6] = 20 ppm active compound + ammonium sulphate 1000 ppm
[7] = 20 ppm active compound + ammonium sulphate and rapeseed oil methyl ester
[8] = 20 ppm active compound + rapeseed oil methyl ester 1000 ppm
[9] = with ammonium sulphate (2 kg/ha)
[10] = with ammonium sulphate (2 kg/ha) and Genapol LRO (1 l/ha)

CON1CCC2(CC1)NC(=O)C(c1c(C)cc(C)cc1C)=C2O [I-a-2]
Kill (%) after 6 d +AS 1000 ppm (Myzus persicae; 0.8 ppm active compound + ammonium sulphate 1000 ppm): 0%
Kill (%) after 6 d +AS + RME per 1000 ppm (Myzus persicae; 0.8 ppm active compound + ammonium sulphate and rapeseed oil methyl ester): 90%
Kill (%) after 6 d +RME 1000 ppm (Myzus persicae; 0.8 ppm active compound + rapeseed oil methyl ester 1000 ppm): 0%
Kill (%) after 6 d (Myzus persicae; 0.8 ppm active compound): 0%
Kill (%) after 6 d +AS 1000 ppm (Myzus persicae; [3]): 55%
Kill (%) after 6 d +AS + RME per 1000 ppm (Myzus persicae; [4]): 95%
Kill (%) after 6 d +RME 1000 ppm (Myzus persicae; [5]): 60%
Kill (%) after 6 d (Myzus persicae; 4 ppm active compound): 0%
Kill (%) after 6 d +AS 1000 ppm (Aphis gossypii; [3]): 0%
Kill (%) after 6 d +AS + RME per 1000 ppm (Aphis gossypii; [4]): 90%
Kill (%) after 6 d +RME 1000 ppm (Aphis gossypii; [5]): 40%
Kill (%) after 6 d (Aphis gossypii; 4 ppm active compound): 0%
Kill (%) after 6 d +AS 1000 ppm (Aphis gossypii; [6]): 85%
Kill (%) after 6 d +AS + RME per 1000 ppm (Aphis gossypii; [7]): 95%
Kill (%) after 6 d +RME 1000 ppm (Aphis gossypii; [8]): 95%
Kill (%) after 6 d (Aphis gossypii; 20 ppm active compound): 0%

CCc1cc(C)cc(CC)c1C1=C(O)C2(CCN(OC)CC2)NC1=O [Example I-a-3]
Penetration after 48 h/% EC [1]: 1%
Penetration after 48 h/% EC + AS (0.7 g/l) [1]: 9%
Penetration after 48 h/% EC + RME (1 g/l) [1]: 9%
Penetration after 48 h/% EC + RME (1 g/l) + AS (0.7 g/l) [1]: 33%
herbicidal effect, a.i. + GE (ALOMY (Peldon); with Genapol LRO (1 l/ha)): 20%
herbicidal effect, a.i. + AS (ALOMY (Peldon); [9]): 0%
herbicidal effect, a.i. + AS + GE (ALOMY (Peldon); [10]): 60%
herbicidal effect, a.i. (ALOMY (Peldon); post-emergence, no adjuvant): 0%
herbicidal effect, a.i. + GE (LOLMU; with Genapol LRO (1 l/ha)): 50%
herbicidal effect, a.i. + AS (LOLMU; [9]): 40%
herbicidal effect, a.i. + AS + GE (LOLMU; [10]): 80%
herbicidal effect, a.i. (LOLMU; post-emergence, no adjuvant): 20%
herbicidal effect, a.i. + GE (LOLRI; with Genapol LRO (1 l/ha)): 20%
herbicidal effect, a.i. + AS (LOLRI; [9]): 0%
herbicidal effect, a.i. + AS + GE (LOLRI; [10]): 60%
herbicidal effect, a.i. (LOLRI; post-emergence, no adjuvant): 0%
herbicidal effect, a.i. + GE (ALOMY; with Genapol LRO (1 l/ha)): 70%
herbicidal effect, a.i. + AS (ALOMY; [9]): 0%
herbicidal effect, a.i. + AS + GE (ALOMY; [10]): 90%
herbicidal effect, a.i. (ALOMY; post-emergence, no adjuvant): 0%

CCOC(=O)OC1=C(c2cc(C)ccc2C)C(=O)NC12CCN(OC)CC2 [I-c-1]
Kill (%) after 6 d +AS 1000 ppm (Myzus persicae; [6]): 0%
Kill (%) after 6 d +AS + RME per 1000 ppm (Myzus persicae; [7]): 98%
Kill (%) after 6 d +RME 1000 ppm (Myzus persicae; [8]): 20%
Kill (%) after 6 d (Myzus persicae; 20 ppm active compound): 0%
Kill (%) after 6 d +AS 1000 ppm (Aphis gossypii; [6]): 0%
Kill (%) after 6 d +AS + RME per 1000 ppm (Aphis gossypii; [7]): 90%
Kill (%) after 6 d +RME 1000 ppm (Aphis gossypii; [8]): 80%
Kill (%) after 6 d (Aphis gossypii; 20 ppm active compound): 0%

CCON1CCC2(CC1)NC(=O)C(c1c(C)cc(C)cc1C)=C2O [Example I-a-4]
Penetration after 48 h/% EC [1]: 0%
Penetration after 48 h/% EC + AS (0.7 g/l) [1]: 3%
Penetration after 48 h/% EC + RME (1 g/l) [1]: 6%
Penetration after 48 h/% EC + RME (1 g/l) + AS (0.7 g/l) [1]: 17%

CON1CCC2(CC1)NC(=O)C(c1cc(C)ccc1C)=C2O [Example I-a-1]
Kill (%) after 6 d +AS 1000 ppm (Myzus persicae; [6]): 0%
Kill (%) after 6 d +AS + RME per 1000 ppm (Myzus persicae; [7]): 60%
Kill (%) after 6 d +RME 1000 ppm (Myzus persicae; [8]): 0%
Kill (%) after 6 d (Myzus persicae; 20 ppm active compound): 0%
Penetration after 24 h/% EC ([2]; 500 ppm in DMF/emulsifier W 7:1 (w/w), no additive): 0.7%
Penetration after 24 h/% EC + AS (1 g/D) ([2]; with ammonium sulphate): 17%
Penetration after 24 h/% EC + DAHP (1 g/l) ([2]; with diammonium hydrogenphosphate): 15%
Penetration after 24 h/% EC + RME (1 g/l) ([2]; with rapeseed oil methyl ester): 1.7%
Penetration after 24 h/% EC + RME (1 g/l) + AS (1 g/l) ([2]; with rapeseed oil methyl ester and ammonium sulphate): 21%
Penetration after 24 h/% EC + RME (1 g/l) + DAHP (1 g/l) ([2]; with rapeseed oil methyl ester and diammonium hydrogenphosphate): 28%
